# In patent US11813264B2, “PAR1 modulation to alter myelination” (Mayo Foundation for Medical Education and Research, priority 2014, dated 2023):
# Columns and labels:
# Type in all cases: cell-based, mouse
# [1] = test system: primary oligodendrocyte cultures (3 DIV); experiment: Oligodendrocyte morphological differentiation scoring (simple, incomplete, complete, membrane), process and cell number; conditions: 24 hours
# Procedure: Oligodendrocyte Cultures: Purified cortical oligodendrocyte progenitor cells (OPCs) and differentiated oligodendrocytes were isolated from mixed glial cultures derived from postnatal day 1 mice (McCarthy and de Vellis, J Cell Blot 85:890-902, 1980). Glial cultures were grown in media containing DMEM, 2 mM Glutamax, 1 mM sodium pyruvate, 20 mM HEPES, and 10% heat-inactivated fetal calf serum (Atlanta Biologicals, Lawrenceville, GA). OPCs were isolated from 10 days-in-vitro (DIV) mixed glial cultures by overnight shaking and purified by differential adhesion. OPCs were seeded in defined Neurobasal A media containing 1% N2, 50 U/mL penicillin/streptomycin, 2 mM Glutamax, 1 mM sodium pyruvate, 0.45% glucose, and 50 μM β-mercaptoethanol (Sigma Aldrich, USA). OPCs were seeded at 3×10^4/cm^2 onto tissue culture plastic or 12 mm glass cover slips coated with poly-L-lysine (PLL, 10 μg/mL). After 24 h, cultures were 92-98% immunoreactive (IR) for sulfatide (O4) and by 72 hours at least 80% were also MBP-IR.
# (§1) PAR agonist-induced changes in oligodendrocyte morphology: To determine the effects of recombinant Klk6, Klk1, thrombin, or PAR1-AP on oligodendroglia, 3 DIV PAR1^+/+, PAR1^−/−, and PAR2^−/− oligodendrocytes, PAR1^+/+ OPCs immediately post purification, or Oli-neu cells were grown on cover slips in the presence of agonists for 24 h. For ATP toxicity assays, oligodendrocytes were incubated with ATP (50 μM, Sigma Aldrich) in the presence of Klk6 or Klk1. Following each treatment, oligodendrocyte and OPC cultures were immunolabeled for O4 to visualize the cell body and processes. Oli-neu processes were visualized by staining the actin cytoskeleton with Cy3-conjugated Phalloidin.
# (§2) To assess the effects of Klk6 and other PAR1 agonists on oligodendrocyte morphology and process stability, 20× digital micrographs were overlaid with a 780 μm^2 grid and ImageJ software 1.45r (National Institutes of Health) used to record cell number and the number of processes crossing horizontal grid lines (Scarisbrick et al., Brain 125:1283-1296, 2002). Data are expressed as the mean number of O4^+ or Phalloidin^+ processes per DAPI^+ cell (±SEM).
# (§3) The extent of oligodendrocyte morphological differentiation was determined by scoring O4^+/DAPI^+ oligodendrocyte morphology as simple (only primary processes, no secondary branching), incomplete (one or more primary process without secondary branching), complete (all primary processes with secondary branching), or membrane (complete secondary branching with membrane sheets) (Huang et al., Nat Neurosci 14:45-53, 2011). The mean number of cells in each morphology class was determined across treatments and expressed as percent of total O4^+/DAPI^+ cells.
# (§4) Changes in OPC or oligodendrocyte morphology were quantified from five microscopic fields per cover slip with the mean and SEM calculated across three cover slips per experiment. Each experiment was repeated at least twice using independent cultures. Analysis of oligodendrocyte morphology was performed without knowledge of treatment groups.
# [2] = test system: primary oligodendrocyte cultures (3 DIV); experiment: ATP toxicity assay in oligodendrocytes
# Procedure: as §1, §2, §3, §4
# Erk1/2 phosphorylation = experiment: Klk6-PAR signaling assay, Erk1/2 phosphorylation by Western blot in Oli-neu; conditions: treatment alone; Klk6 10 minutes
# Procedure: Klk6-PAR signaling assays: To examine the ability of Klk6 to mediate PAR-dependent signaling in oligodendrocytes, Oli-neu oligodendroglia (3.5×10^5 cells/well in six-well plates) were treated with Klk6 (150 nM) for 10 min, followed by protein harvest. Cell lysates were analyzed for phosphorylated or nonphosphorylated Erk1/2 by Western blot. In experiments to determine the role of PARs in Klk6 signaling, Oli-neu were preincubated with the PAR1 antagonist, SCH79797 dihydrochloride (50 nM, Tocris Biosciences, Minneapolis, MN) for 30 minutes prior to Klk6 application.
# Western blot: Oli-neu lysates were obtained using a buffer containing 1% NP40, 0.5% deoxycholate, 10% glycerol, and 20 mM Tris base and separated on SDS-polyacrylamide gels prior to transfer. Membranes were blocked with 5% milk in TBS-T and incubated overnight with primary antibodies including rabbit anti-phospho-Erk1/2 (1:1,000, Cell Signaling Technology, Danvers, MA), followed with a species-appropriate horseradish peroxidase-conjugated secondary antibody (1:20,000 GE Healthcare Unlimited, UK). Signal was detected using Chemiluminescence Supersignal Pico (Pierce, Rockford, IL). Western blots were repeated three times from independent cultures, scanned, and quantified by densitometry (BioRad Quantity One 1-D Analysis Software, BioRad, Hercules, CA). Erk1/2 signal was normalized to its nonphosphorylated form. Equal loading was verified by reprobing blots for […] (Novus Biologicals, Littleton, CO).
# Oli-neu oligodendrocytes = experiment: Process retraction in Oli-neu oligodendrocytes (Phalloidin+ processes per cell); conditions: 24 hours, PAR1-AP 100 μM, Klk1 300 nM
# Procedure: Oli-neu oligodendrocytes are derived from mouse primary oligodendrocyte cultures retrovirally transduced to constitutively express the t-neu oncogene (Jung et al., Eur J Neurosci 7:1245-1265, 1995). All morphology, signaling, and myelin gene expression studies using Oli-neu oligodendrocytes were performed in media containing DMEM, 1% N2, 2 mM Glutamax, 1 mM sodium pyruvate, 20 mM HEPES buffer, and 50 μM β-mercaptoethanol (Sigma Aldrich. To evaluate PAR and Klk6 gene expression in Oli-neu (Table 2), cells were differentiated by treatment with 1 mM N^6, 2′-O-dibutyryladenosine 3′, 5′-cyclic monophosphate disodium salt (dbcAMP) for 72 hours prior to harvesting for RNA isolation. All cells were maintained at 37° C. in 95% air and 5% CO2. Cell culture reagents were obtained from Life Technologies (Carlsbad, CA) unless otherwise indicated. All cell culture experiments were performed in triplicate and repeated at least twice.
# as §1, §2
# [3] = co-application with ATP 50 μM, Klk6 150 nM
substance,measurement,setting,value
Klk6: Recombinant murine kallikrein-related peptidase 6 expressed using a baculovirus system,number of incomplete oligodendrocyte morphologies,[1]; 150 nM,greater than four-fold increase
same,number of simple oligodendrocyte morphologies,[1]; 150 nM,two-fold increase
same,oligodendrocytes with complete morphology,[1]; 150 nM,nearly eleven-fold decrease
same,oligodendroglia with membrane morphology,[1]; 150 nM,elimination
same,oligodendrocyte number,"[1]; Klk6 150 nM, Klk1 300 nM",no significant effect
same,processes per cell,"[1]; Klk6 150 nM, Klk1 300 nM",two-fold fewer
same,ATP-induced oligodendrocyte loss,[2]; co-application with ATP,significant exacerbation
same,number of processes per oligodendrocyte,[2]; co-application with ATP 50 μM,five-fold reduction
same,oligodendrocytes with membrane morphology,[2]; co-application with ATP 50 μM,complete loss
same,oligodendroglia with mature complete morphology,[2]; co-application with ATP 50 μM,complete loss
same,increase in oligodendrocytes with incomplete morphologies compared with vehicle or ATP alone,[2]; [3],greater than 40%
same,percentage of oligodendrocytes with simple morphology relative to ATP alone,[2]; [3],further increasing
same,Erk1/2 phosphorylation,Erk1/2 phosphorylation,nearly four-fold increase
same,Oli-neu cell number,Oli-neu oligodendrocytes; Klk6 30 nM,small but significant increase
same,number of processes per cell,"Oli-neu oligodendrocytes; Klk6 30, 150, 300 nM, thrombin 270 nM",significant and dose-dependent
